Data taken from ChEMBL document CHEMBL3232987, “Investigation of Ugi-4CC derived 1H-tetrazol-5-yl-(aryl) methyl piperazinyl-6-fluoro-4-oxo-1,4-dihydroquinoline-3-carboxylic acid: synthesis, biology and 3D-QSAR analysis” (Eur J Med Chem, 2014).
In brackets after ≈: the same amount, converted by molar mass.

Key:
Staphylococcus aureus [1] = assay: Antibacterial activity against methicillin-resistant Staphylococcus aureus ATCC 700699 after 24 hrs by spectrophotometric analysis; type: functional, organism-based; conditions: for IC50: read-out: IC50
Staphylococcus aureus [2] = assay: Antibacterial activity against Staphylococcus aureus ATCC 29213 by NCCLS two-fold dilution method; type: functional
Staphylococcus aureus [3] = assay: Antibacterial activity against Staphylococcus aureus ATCC 25923 after 24 hrs by spectrophotometric analysis; type: functional, organism-based; conditions: for IC50: read-out: IC50
Staphylococcus aureus [4] = assay: Antibacterial activity against Staphylococcus aureus ATCC 29213 after 24 hrs by spectrophotometric analysis; type: functional, organism-based; conditions: for IC50: read-out: IC50
Staphylococcus aureus [5] = assay: Antibacterial activity against gentamicin-resistant Staphylococcus aureus ATCC 33592 by NCCLS two-fold dilution method; type: functional
Staphylococcus aureus [6] = assay: Antibacterial activity against methicillin-resistant Staphylococcus aureus ATCC 700699 by NCCLS two-fold dilution method; type: functional
Staphylococcus aureus [7] = assay: Antibacterial activity against gentamicin-resistant Staphylococcus aureus ATCC 33592 after 24 hrs by spectrophotometric analysis; type: functional, organism-based; conditions: for IC50: read-out: IC50
Staphylococcus aureus [8] = assay: Antibacterial activity against Staphylococcus aureus ATCC 25923 by NCCLS two-fold dilution method; type: functional
L929 [9] = assay: Cytotoxicity against mouse L929 cells assessed as cell viability up to MIC 0.39 ug/ml after 24 hrs by MTT assay; type: cell-based; conditions: l929, 24 h
L929 [10] = assay: Cytotoxicity against mouse L929 cells assessed as cell morphological changes at 12.5 to 50 ug/ml after 24 hrs by giemsa staining based phase contrast microscopy; conditions: l929, 24 h
Klebsiella pneumoniae [11] = assay: Antibacterial activity against Klebsiella pneumoniae after 24 hrs by spectrophotometric analysis; type: functional, organism-based; conditions: for IC50: read-out: IC50
Escherichia coli [12] = assay: Antibacterial activity against Escherichia coli by NCCLS two-fold dilution method; type: functional
Klebsiella pneumoniae [13] = assay: Antibacterial activity against Klebsiella pneumoniae by NCCLS two-fold dilution method; type: functional
Escherichia coli [14] = assay: Antibacterial activity against Escherichia coli after 24 hrs by spectrophotometric analysis; type: functional, organism-based; conditions: for IC50: read-out: IC50
[15] = Staphylococcus aureus, ATCC 700699, 24 h
[16] = Staphylococcus aureus, ATCC 25923, 24 h
[17] = Staphylococcus aureus, ATCC 29213, 24 h
[18] = Staphylococcus aureus, ATCC 33592, 24 h
[19] = Staphylococcus aureus, ATCC 25923

| Compound | MIC (Staphylococcus aureus [1]; [15]) [µg/mL] | IC50 (Staphylococcus aureus [1]; [15]) [µg/mL] | MIC (Staphylococcus aureus [2]) [µg/mL] | MIC (Staphylococcus aureus [3]; [16]) [µg/mL] | IC50 (Staphylococcus aureus [3]; [16]) [µg/mL] | MIC (Staphylococcus aureus [4]; [17]) [µg/mL] | IC50 (Staphylococcus aureus [4]; [17]) [µg/mL] | MIC (Staphylococcus aureus [5]) [µg/mL] | MIC (Staphylococcus aureus [6]) [µg/mL] | MIC (Staphylococcus aureus [7]; [18]) [µg/mL] | IC50 (Staphylococcus aureus [7]; [18]) [µg/mL] | -logMIC (Staphylococcus aureus [8]) | MIC (Staphylococcus aureus [8]; [19]) [µg/mL] | Activity (L929 [9]) | MIC (Escherichia coli [12]) [µg/mL] | MIC (Klebsiella pneumoniae [13]) [µg/mL] | also measured |
| --- | --- | --- | --- | --- | --- | --- | --- | --- | --- | --- | --- | --- | --- | --- | --- | --- | --- |
| CCn1cc(C(=O)O)c(=O)c2cc(F)c(N3CCN(C(c4ccccc4)c4nnnn4C(C)(C)C)CC3)cc21 (stereo not drawn) | 8.3 (≈ 15.6 µM) | 3.8 (≈ 7.12 µM) | 0.78 (≈ 1.46 µM) | 0.38 (≈ 0.712 µM) | 0.37 (≈ 0.693 µM) | 0.5 (≈ 0.937 µM) | 0.2 (≈ 0.375 µM) | 0.39 (≈ 0.731 µM) | 25 (≈ 46.9 µM) | 0.38 (≈ 0.712 µM) | 0.34 (≈ 0.637 µM) | 6.136 | 0.39 (≈ 0.731 µM) | Non-toxic | – | – | – |
| CCn1cc(C(=O)O)c(=O)c2cc(F)c(N3CCN(C(c4ccc(OC)c(OC)c4OC)c4nnnn4C4CCCCC4)CC3)cc21 (stereo not drawn) | 28.9 (≈ 44.5 µM) | 14.6 (≈ 22.5 µM) | 1.56 (≈ 2.4 µM) | 1.35 (≈ 2.08 µM) | 0.37 (≈ 0.569 µM) | 0.8 (≈ 1.23 µM) | 0.7 (≈ 1.08 µM) | 1.56 (≈ 2.4 µM) | 25 (≈ 38.5 µM) | 0.8 (≈ 1.23 µM) | 0.7 (≈ 1.08 µM) | 5.318 | 1.56 (≈ 2.4 µM) | Non-toxic | – | – | Activity (L929 [10]): Non-toxic |
| CCn1cc(C(=O)O)c(=O)c2cc(F)c(N3CCN(C(c4ccc(OC)c(OC)c4OC)c4nnnn4C(C)(C)C)CC3)cc21 (stereo not drawn) | 50 (≈ 80.2 µM) | 50 (≈ 80.2 µM) | 3.12 (≈ 5 µM) | 0.81 (≈ 1.3 µM) | 0.4 (≈ 0.641 µM) | 1.4 (≈ 2.24 µM) | 0.8 (≈ 1.28 µM) | 3.12 (≈ 5 µM) | 50 (≈ 80.2 µM) | 0.87 (≈ 1.39 µM) | 0.75 (≈ 1.2 µM) | 5.602 | 1.56 (≈ 2.5 µM) | Non-toxic | 50 (≈ 80.2 µM) | > 50 | MIC (Klebsiella pneumoniae [11]; Klebsiella pneumoniae, 24 h): > 50 µg/mL; IC50 (Klebsiella pneumoniae [11]; Klebsiella pneumoniae, 24 h): > 50 µg/mL; MIC (Escherichia coli [14]; Escherichia coli, 24 h): 46 µg/mL (≈ 73.8 µM); IC50 (Escherichia coli [14]; Escherichia coli, 24 h): 29 µg/mL (≈ 46.5 µM) |
| CCn1cc(C(=O)O)c(=O)c2cc(F)c(N3CCN(C(c4ccc(F)cc4)c4nnnn4C4CCCCC4)CC3)cc21 (stereo not drawn) | 50 (≈ 86.6 µM) | 50 (≈ 86.6 µM) | 50 (≈ 86.6 µM) | 2.1 (≈ 3.64 µM) | 0.5 (≈ 0.866 µM) | > 50 | 50 (≈ 86.6 µM) | 50 (≈ 86.6 µM) | 50 (≈ 86.6 µM) | 50 (≈ 86.6 µM) | 50 (≈ 86.6 µM) | 5.568 | 1.56 (≈ 2.7 µM) | – | – | – | – |
| COc1ccc(C(c2nnnn2C(C)(C)C)N2CCN(c3cc4c(cc3F)c(=O)c(C(=O)O)cn4Cc3ccc(C(F)(F)F)cc3)CC2)c2ccccc12 (stereo not drawn) | 50 (≈ 67.2 µM) | 50 (≈ 67.2 µM) | > 50 | > 50 | 50 (≈ 67.2 µM) | > 50 | > 50 | > 50 | > 50 | > 50 | > 50 | 4.172 | 50 (≈ 67.2 µM) | – | – | – | – |
| CCn1cc(C(=O)O)c(=O)c2cc(F)c(N3CCN(C(c4ccncc4)c4nnnn4C4CCCCC4)CC3)cc21 (stereo not drawn) | > 50 | 50 (≈ 89.2 µM) | 3.12 (≈ 5.57 µM) | 1.09 (≈ 1.94 µM) | 0.37 (≈ 0.66 µM) | 1 (≈ 1.78 µM) | 0.6 (≈ 1.07 µM) | 3.12 (≈ 5.57 µM) | 50 (≈ 89.2 µM) | 0.6 (≈ 1.07 µM) | 0.1 (≈ 0.178 µM) | 5.555 | 1.56 (≈ 2.78 µM) | Non-toxic | 6.25 (≈ 11.1 µM) | 6.25 (≈ 11.1 µM) | MIC (Klebsiella pneumoniae [11]; Klebsiella pneumoniae, 24 h): 6.3 µg/mL (≈ 11.2 µM); IC50 (Klebsiella pneumoniae [11]; Klebsiella pneumoniae, 24 h): 3.5 µg/mL (≈ 6.24 µM); MIC (Escherichia coli [14]; Escherichia coli, 24 h): 4.2 µg/mL (≈ 7.49 µM); IC50 (Escherichia coli [14]; Escherichia coli, 24 h): 2.1 µg/mL (≈ 3.75 µM) |
| GENTAMICIN | – | – | > 50 | – | – | – | – | > 50 | > 50 | – | – | – | – | – | 1.56 | 1.56 | MIC (Klebsiella pneumoniae [11]): 2.1 µg/mL; MIC (Staphylococcus aureus [1]): > 50 µg/mL; MIC (Staphylococcus aureus [3]): 2.1 µg/mL; MIC (Staphylococcus aureus [4]): > 50 µg/mL; MIC (Staphylococcus aureus [7]): > 50 µg/mL; MIC (Escherichia coli [14]): 2.1 µg/mL; MIC (Staphylococcus aureus [8]): 1.56 µg/mL |
| COc1ccc(C(c2nnnn2C(C)(C)C)N2CCN(c3cc4c(cc3F)c(=O)c(C(=O)O)cn4Cc3ccc(C(F)(F)F)cc3)CC2)c(OC)c1OC (stereo not drawn) | 50 (≈ 66.3 µM) | 50 (≈ 66.3 µM) | 50 (≈ 66.3 µM) | 50 (≈ 66.3 µM) | 50 (≈ 66.3 µM) | 50 (≈ 66.3 µM) | 50 (≈ 66.3 µM) | 50 (≈ 66.3 µM) | 50 (≈ 66.3 µM) | 50 (≈ 66.3 µM) | 50 (≈ 66.3 µM) | 4.178 | 50 (≈ 66.3 µM) | – | – | – | – |
| CC(C)(C)n1nnnc1C(c1ccncc1)N1CCN(c2cc3c(cc2F)c(=O)c(C(=O)O)cn3Cc2ccc(C(F)(F)F)cc2)CC1 (stereo not drawn) | 50 (≈ 75.2 µM) | 50 (≈ 75.2 µM) | 50 (≈ 75.2 µM) | 50 (≈ 75.2 µM) | 50 (≈ 75.2 µM) | 50 (≈ 75.2 µM) | 50 (≈ 75.2 µM) | 50 (≈ 75.2 µM) | 50 (≈ 75.2 µM) | 50 (≈ 75.2 µM) | 50 (≈ 75.2 µM) | 4.123 | 50 (≈ 75.2 µM) | – | – | – | – |
